Here are results for 33 compounds from US7026339B2, “Inhibitors of HCV NS5B polymerase” (priority 2003, dated 2006).

The assay relates to HuH-7 replicon cells 5–15 and 9–13 (HCV replication). Kind of assay: Inhibition of viral replication in HuH-7 replicon cells (HCV RNA / GAPDH RNA by multiplex RT-PCR). The assay is classed as cell-based. The settings on record: Hepatitis C virus. The essentials:
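HCV and GAPDH RNA were measured by multiplex TaqMan RT-PCR (HCV 5′ untranslated region) after 3-day compound treatment at 37 °C, final 100 μM–1 μM in 1% DMSO. Cells were plated 24 h beforehand at 7×10^3/well. Read-out: HCV-to-GAPDH ratio expressed as percent control versus untreated cells.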
For orientation: Replicon systems follow genome replication, usually without infectious particles.

Setting [1] is: 72 h, inhibiting 50% of replication, HuH-7 replicon cells, 3 days, read-out: IC50.

Read-outs that look alike come from different tables or passages of the source.

With `O=C(N/N=C/c1ccccc1OS(=O)(=O)c1ccc(C(F)(F)F)cc1)c1ccccc1[N+](=O)[O-]` [Compound 77, 2-{(E)-[2-(2-nitrobenzoyl)hydrazono]methyl}phenyl 4-(trifluoromethyl)benzenesulfonate], under setting [1], the IC50 (as a rule, the concentration needed to halve the response being measured) is under 5 µM. Still for that read-out and setting: to `Cc1ccc(S(=O)(=O)N/N=C/c2ccccc2OS(=O)(=O)c2ccc(C(F)(F)F)cc2)cc1` [Compound 78, 2-((E)-{2-[(4-methylphenyl)sulfonyl]hydrazono}methyl)-phenyl 4-(trifluoromethyl)benzenesulfonate] belongs 5 to 50 µM. Still for that read-out and setting: under `CN(C)c1ccc(C(=O)N/N=C/c2ccccc2OS(=O)(=O)c2ccc(C(F)(F)F)cc2)cc1` [Compound 79, 2-((E)-{2-[4-(dimethylamino)benzoyl]hydrazono}methyl)-phenyl 4-(trifluoromethyl)benzenesulfonate] stands 5 to 50 µM. On to `O=C(CC1CC2CCC1C2)N/N=C/c1ccccc1OS(=O)(=O)c1ccc(C(F)(F)F)cc1` (stereo not drawn) [Compound 80, 2-{(E)-[2-(2-bicyclo[2.2.1]hept-2-ylacetyl)hydrazono]methyl}phenyl 4-(trifluoromethyl)benzenesulfonate], for which the concentration for half-maximal inhibition (IC50) (Huh-7, 72 h) was under 5 µM. On to `C/C(=N\NC(=O)Cc1cccc(Cl)c1)c1ccccc1OS(=O)(=O)c1ccc(C(F)(F)F)cc1` [Compound 81, 2-{(1E)-N-[(3-chlorophenyl)acetyl]ethanehydrazonoyl}-phenyl 4-(trifluoromethyl)benzenesulfonate], for which the IC50 under setting [1] was over 50 µM.

As for `O=C(Cc1nc(-c2cnccn2)no1)N/N=C/c1ccccc1OS(=O)(=O)c1ccc(C(F)(F)F)cc1` [Compound 82, 2-((E)-{2-[2-(3-pyrazin-2-yl-1,2,4-oxadiazol-5-yl)acetyl]hydrazono}methyl)phenyl 4-(trifluoromethyl)benzenesulfonate], the IC50 under setting [1] was 5 to 50 µM. The same measure, in the same setting: under `CSc1ncccc1C(=O)N/N=C/c1ccccc1OS(=O)(=O)c1ccc(C(F)(F)F)cc1` [Compound 83, 2-[(E)-(2-{[2-(methylthio)pyridin-3-yl]carbonyl}hydrazono)methyl]phenyl 4-(trifluoromethyl)benzenesulfonate] stands under 5 µM; under `O=C(CC1CCCC1)N/N=C/c1ccccc1OS(=O)(=O)c1ccc(C(F)(F)F)cc1` [Compound 84, 2-{(E)-[2-(2-cyclopentylacetyl)hydrazono]methyl}phenyl4-(trifluoromethyl)benzenesulfonate], under 5 µM. The same measure, in the same setting: to `CCOc1ccccc1C(=O)N/N=C/c1ccccc1OS(=O)(=O)c1ccc(C(F)(F)F)cc1` [Compound 85, 2-{(E)-[2-(2-ethoxybenzoyl)hydrazono]methyl}phenyl4-(trifluoromethyl)benzenesulfonate] belongs over 50 µM; to `CN(C)c1cccc(OCC(=O)N/N=C/c2ccccc2OS(=O)(=O)c2ccc(C(F)(F)F)cc2)c1` [Compound 86, 2-[(E)-(2-{2-[3-(dimethylamino)phenoxy]acetyl}hydrazono)-methyl]phenyl 4-(trifluoromethyl)benzenesulfonate], over 50 µM; to `COc1ccccc1C(=O)N/N=C/c1ccccc1OS(=O)(=O)c1ccc(C(F)(F)F)cc1` [Compound 87, 2-{(E)-[2-(2-methoxybenzoyl)hydrazono]methyl}phenyl4-(trifluoromethyl)benzenesulfonate], over 50 µM.

Regarding `O=C(N/N=C/c1ccccc1OS(=O)(=O)c1ccc(C(F)(F)F)cc1)c1ccccc1Br` [Compound 88, 2-{(E)-[2-(2-bromobenzoyl)hydrazono]methyl}phenyl4-(trifluoromethyl)benzenesulfonate], under setting [1], the 50% inhibitory concentration (IC50) was under 5 µM. Still for that read-out and setting: under `O=C(N/N=C/c1ccccc1OS(=O)(=O)c1ccc(C(F)(F)F)cc1)c1cnccc1C(F)(F)F` [Compound 89, 2-[(E)-(2-{[4-(trifluoromethyl)pyridin-3-yl]carbonyl}hydrazono)methyl]phenyl 4-(trifluoromethyl)benzenesulfonate] stands 5 to 50 µM; under `O=C(N/N=C/c1ccccc1OS(=O)(=O)c1ccc(C(F)(F)F)cc1)c1ccccc1F` [Compound 90, 2-{(E)-[2-(2-fluorobenzoyl)hydrazono]methyl}phenyl 4-(trifluoromethyl)benzenesulfonate], 5 to 50 µM; under `O=C(N/N=C/c1ccccc1OS(=O)(=O)c1ccc(C(F)(F)F)cc1)C1CCN(Cc2ccccc2)C1=O` (stereo not drawn) [Compound 91, 2-((E)-{2-[(1-benzyl-2-oxopyrrolidin-3-yl)carbonyl]hydrazono}methyl)phenyl 4-(trifluoromethyl)benzenesulfonate], over 50 µM. Still for that read-out and setting: to `Cc1ncccc1C(=O)N/N=C/c1ccccc1OS(=O)(=O)c1ccc(C(F)(F)F)cc1` [Compound 92, 2-((E)-{2-[(2-methylpyridin-3-yl)carbonyl]hydrazono}methyl)phenyl 4-(trifluoromethyl)benzenesulfonate] belongs 5 to 50 µM; to `Cc1cccnc1C(=O)N/N=C/c1ccccc1OS(=O)(=O)c1ccc(C(F)(F)F)cc1` [Compound 93, 2-((E)-{2-[(3-methylpyridin-2-yl)carbonyl]hydrazono}methyl)phenyl 4-(trifluoromethyl)benzenesulfonate], over 50 µM; to `O=C(CC12CC3CC(CC(C3)C1)C2)N/N=C/c1ccccc1OS(=O)(=O)c1ccc(C(F)(F)F)cc1` [Compound 94, 2-((E)-{2-[2-(1-adamantyl)acetyl]hydrazono}methyl)phenyl4-(trifluoromethyl)benzenesulfonate], over 50 µM. On the same count and under the same terms, under `O=C(CC1CCCO1)N/N=C/c1ccccc1OS(=O)(=O)c1ccc(C(F)(F)F)cc1` (stereo not drawn) [Compound 95, 2-{(E)-[2-(2-tetrahydrofuran-2-ylacetyl)hydrazono]methyl}phenyl4-(trifluoromethyl)benzenesulfonate] stands under 5 µM; under `COc1cccc(CNc2cccc(CC(=O)N/N=C/c3ccccc3OS(=O)(=O)c3ccc(C(F)(F)F)cc3)c2)c1` [Compound 96, 2-{(E)-[2-(2-{3-[(3-methoxybenzyl)amino]phenyl}acetyl)hydrazono]methyl}phenyl 4-(trifluoromethyl)benzenesulfonate], over 50 µM. For the compound `O=C(Cc1cccc(-n2cccc2)c1)N/N=C/c1ccccc1OS(=O)(=O)c1ccc(C(F)(F)F)cc1` [Compound 97, 2-[(E)-(2-{2-[3-(1H-pyrrol-1-yl)phenyl]acetyl}hydrazono)methyl]phenyl4-(trifluoromethyl)benzenesulfonate], the IC50 under setting [1] is over 50 µM.

For `O=C(Cc1cccc(N2CCCC2)c1)N/N=C/c1ccccc1OS(=O)(=O)c1ccc(C(F)(F)F)cc1` [Compound 98, 2-((E)-{2-[2-(3-pyrrolidin-1-ylphenyl)acetyl]hydrazono}methyl)phenyl4-(trifluoromethyl)benzenesulfonate], the half-inhibitory concentration (IC50) under setting [1] was in the range of 5 to 50 µM. The same measure, in the same setting: to `CC(=O)Nc1ccc(CNc2cccc(CC(=O)N/N=C/c3ccccc3OS(=O)(=O)c3ccc(C(F)(F)F)cc3)c2)cc1` [Compound 99, 2-((E)-{2-[2-(3-{[4-(acetylamino)benzyl]amino}phenyl)acetyl]-hydrazono}methyl)phenyl 4-(trifluoromethyl)benzenesulfonate] belongs under 5 µM; to `Cc1ccccc1C(=O)N/N=C/c1ccccc1OS(=O)(=O)c1ccc(C(F)(F)F)cc1` [Compound 100, 2-{(E)-[2-(2-methylbenzoyl)hydrazono]methyl}phenyl4-(trifluoromethyl)benzenesulfonate], under 5 µM; to `O=C(N/N=C/c1ccccc1OS(=O)(=O)c1ccc(C(F)(F)F)cc1)C1CCCCC1` [Compound 101, 2-{(E)-[2-(cyclohexylcarbonyl)hydrazono]methyl}phenyl 4-(trifluoromethyl)benzenesulfonate], 5 to 50 µM. As to `O=C(N/N=C/c1ccccc1OS(=O)(=O)c1ccc(C(F)(F)F)cc1)c1c(F)cccc1F` [Compound 102, 2-{(E)-[2-(2,6-difluorobenzoyl)hydrazono]methyl}phenyl4-(trifluoromethyl)benzenesulfonate], the 50% inhibitory concentration (IC50) under setting [1] is under 5 µM. The same measure, in the same setting: under `O=C(N/N=C/c1ccccc1OS(=O)(=O)c1ccc(C(F)(F)F)cc1)c1c(F)cccc1C(F)(F)F` [Compound 103, 2-((E)-{2-[2-fluoro-6-(trifluoromethyl)benzoyl]hydrazono}methyl)-phenyl 4-(trifluoromethyl)benzenesulfonate] stands under 5 µM; under `O=C(N/N=C/c1ccccc1OS(=O)(=O)c1ccc(C(F)(F)F)cc1)c1ccccc1C(F)(F)F` [Compound 104, 2-((E)-{2-[2-(trifluoromethyl)benzoyl]hydrazono}methyl)-phenyl 4-(trifluoromethyl)benzenesulfonate], under 5 µM. The same measure, in the same setting: under `CCc1ccc(S(=O)(=O)N/N=C/c2ccccc2OS(=O)(=O)c2ccc(C(F)(F)F)cc2)cc1` [Compound 105, 2-((E)-{2-[(4-ethylphenyl)sulfonyl]hydrazono}methyl)-phenyl 4-(trifluoromethyl)benzenesulfonate] stands 5 to 50 µM; under `Cn1cnc(CC(=O)N/N=C/c2ccccc2OS(=O)(=O)c2ccc(C(F)(F)F)cc2)c1` [Compound 106, 2-((E)-{2-[2-(1-methyl-1H-imidazol-4-yl)acetyl]hydrazono}methyl)phenyl 4-(trifluoromethyl)benzenesulfonate], under 5 µM. On the same count and under the same terms, to `O=C(Cn1c(Br)nc(Cl)c1Cl)N/N=C/c1ccccc1OS(=O)(=O)c1ccc(C(F)(F)F)cc1` [Compound 107, 2-((E)-{2-[2-(2-bromo-4,5-dichloro-1H-imidazol-1-yl)acetyl]hydrazono}methyl)phenyl 4-(trifluoromethyl)benzenesulfonate] belongs over 50 µM; to `O=C(Cc1ccccc1)N/N=C/c1ccccc1OS(=O)(=O)c1ccccc1` [Compound 108, 2-{(E)-[2-(2-phenylacetyl)hydrazono]methyl}phenylbenzenesulfonate], over 50 µM.

On to `O=C(Cc1ccccc1)N/N=C/c1ccccc1OS(=O)(=O)c1cccs1` [Compound 109, 2-{(E)-[2-(2-phenylacetyl)hydrazono]methyl}phenylthiophene-2-sulfonate], for which the IC50 under setting [1] is over 50 µM.
